Reference: ChEMBL document CHEMBL1201862, “PubChem BioAssay data set” (2004)
Activity calls are given as the source filed them.

What was measured:
NADPH oxidase 1 = target: T1, NADPH oxidase 1 (Homo sapiens, UniProt Q9Y5S8); format: functional, cell-based;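 note: Cell-based assay with luminescence read-out, IC50 derived from inhibitor dose-response curves; intracellular ROS from endogenous NOX1 in intact HT29 colon cancer cells; potency of inhibitors that lower the ROS luminescence signal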
T1 sequence (Q9Y5S8 whole entry): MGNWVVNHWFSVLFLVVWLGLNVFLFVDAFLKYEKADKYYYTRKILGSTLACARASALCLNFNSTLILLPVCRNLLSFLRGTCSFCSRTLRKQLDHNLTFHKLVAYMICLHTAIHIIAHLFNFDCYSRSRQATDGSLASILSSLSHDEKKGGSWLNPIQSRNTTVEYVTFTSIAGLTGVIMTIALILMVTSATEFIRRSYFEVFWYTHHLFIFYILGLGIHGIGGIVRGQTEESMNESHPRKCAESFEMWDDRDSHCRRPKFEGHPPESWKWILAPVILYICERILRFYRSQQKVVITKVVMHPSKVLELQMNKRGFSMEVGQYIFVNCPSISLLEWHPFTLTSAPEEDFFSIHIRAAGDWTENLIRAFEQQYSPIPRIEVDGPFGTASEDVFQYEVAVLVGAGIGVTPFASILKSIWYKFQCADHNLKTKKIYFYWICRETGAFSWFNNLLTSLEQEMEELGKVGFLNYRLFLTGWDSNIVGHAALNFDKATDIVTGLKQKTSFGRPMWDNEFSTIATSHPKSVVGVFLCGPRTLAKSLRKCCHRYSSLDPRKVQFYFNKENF

Leucine aminopeptidase = target: T2, Leucine aminopeptidase (Plasmodium falciparum 3D7, UniProt Q8IL11); assay: P. falciparum M17LAP inhibitors, primary screen, biochemical, fluorogenic H-Leu-NHMec substrate, 1536-well (AID 1619); format: functional
T2 sequence (Q8IL11 whole entry): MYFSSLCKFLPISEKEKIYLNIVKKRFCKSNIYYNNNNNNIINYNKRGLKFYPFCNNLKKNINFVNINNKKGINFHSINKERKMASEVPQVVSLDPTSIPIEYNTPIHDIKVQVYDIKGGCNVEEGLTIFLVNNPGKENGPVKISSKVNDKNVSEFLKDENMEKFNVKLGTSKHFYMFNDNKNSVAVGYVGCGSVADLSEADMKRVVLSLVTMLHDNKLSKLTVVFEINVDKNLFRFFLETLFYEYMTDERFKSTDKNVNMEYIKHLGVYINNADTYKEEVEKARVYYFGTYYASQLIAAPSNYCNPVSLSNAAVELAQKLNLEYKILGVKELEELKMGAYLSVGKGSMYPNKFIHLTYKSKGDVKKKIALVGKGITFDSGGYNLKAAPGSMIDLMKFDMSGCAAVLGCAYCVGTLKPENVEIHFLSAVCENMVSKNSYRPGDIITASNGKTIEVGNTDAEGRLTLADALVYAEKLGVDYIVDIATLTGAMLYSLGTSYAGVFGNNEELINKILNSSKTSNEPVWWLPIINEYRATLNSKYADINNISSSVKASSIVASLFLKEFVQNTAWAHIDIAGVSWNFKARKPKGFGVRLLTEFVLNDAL

[1] = inhibitors of Bluetongue virus cytopathic effect, confirmation, arbovirus, BSR cells (AID 1250); format: functional;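 note: protection from viral cytopathic effect measured as cell viability by ATP luminescence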
[2] = target: T3, RNA-binding protein pos-1 (Caenorhabditis elegans, UniProt G5EF15); assay: inhibitors of POS-1/mex-3 RNA binding, dose response, biochemical, fluorescence polarization (AID 1964);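 note: purified POS-1 fused to maltose binding protein made in E. coli; potency of compounds blocking POS-1 binding to fluorescent RNA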
T3 sequence (G5EF15 whole entry): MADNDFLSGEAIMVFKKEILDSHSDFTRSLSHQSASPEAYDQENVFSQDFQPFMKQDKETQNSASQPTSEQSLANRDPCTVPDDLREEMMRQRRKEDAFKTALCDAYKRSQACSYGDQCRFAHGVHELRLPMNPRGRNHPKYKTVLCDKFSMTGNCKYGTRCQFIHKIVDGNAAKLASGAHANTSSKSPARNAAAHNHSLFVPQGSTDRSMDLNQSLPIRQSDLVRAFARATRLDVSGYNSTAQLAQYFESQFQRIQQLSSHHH

[3] = target: T4, Zinc finger protein mex-5 (Caenorhabditis elegans, UniProt Q9XUB2); assay: MEX-5/TCR-2 RNA interaction inhibitors, dose response, biochemical, C. elegans, fluorescence polarization (AID 1960)
T4 sequence (Q9XUB2 whole entry): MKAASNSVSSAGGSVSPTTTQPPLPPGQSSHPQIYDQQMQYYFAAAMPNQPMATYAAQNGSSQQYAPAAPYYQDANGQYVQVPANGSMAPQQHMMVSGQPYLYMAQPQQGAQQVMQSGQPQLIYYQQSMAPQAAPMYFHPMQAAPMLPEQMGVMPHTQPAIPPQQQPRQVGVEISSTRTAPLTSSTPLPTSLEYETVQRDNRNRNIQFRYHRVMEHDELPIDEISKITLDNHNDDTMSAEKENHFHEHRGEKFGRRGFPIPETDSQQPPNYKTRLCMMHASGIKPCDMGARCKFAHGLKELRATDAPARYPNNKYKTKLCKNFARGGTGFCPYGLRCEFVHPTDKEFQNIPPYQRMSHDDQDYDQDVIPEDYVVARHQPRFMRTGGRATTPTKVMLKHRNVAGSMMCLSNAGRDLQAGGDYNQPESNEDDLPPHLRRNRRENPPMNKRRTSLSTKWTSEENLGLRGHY

Large T antigen = Large T antigen (Simian virus 40, UniProt P03070); format: functional, Betapolyomavirus macacae;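 note: Confirmatory-stage PubChem screen for compounds that inhibit SV40 T antigen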
[4] = target: Protein-tyrosine kinase 2-beta (Homo sapiens, UniProt Q14289);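 note: potency of inhibitors of PYK2 kinase phosphorylation of poly-GT substrate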
Chain of Protein-tyrosine kinase 2-beta (Q14289 whole entry): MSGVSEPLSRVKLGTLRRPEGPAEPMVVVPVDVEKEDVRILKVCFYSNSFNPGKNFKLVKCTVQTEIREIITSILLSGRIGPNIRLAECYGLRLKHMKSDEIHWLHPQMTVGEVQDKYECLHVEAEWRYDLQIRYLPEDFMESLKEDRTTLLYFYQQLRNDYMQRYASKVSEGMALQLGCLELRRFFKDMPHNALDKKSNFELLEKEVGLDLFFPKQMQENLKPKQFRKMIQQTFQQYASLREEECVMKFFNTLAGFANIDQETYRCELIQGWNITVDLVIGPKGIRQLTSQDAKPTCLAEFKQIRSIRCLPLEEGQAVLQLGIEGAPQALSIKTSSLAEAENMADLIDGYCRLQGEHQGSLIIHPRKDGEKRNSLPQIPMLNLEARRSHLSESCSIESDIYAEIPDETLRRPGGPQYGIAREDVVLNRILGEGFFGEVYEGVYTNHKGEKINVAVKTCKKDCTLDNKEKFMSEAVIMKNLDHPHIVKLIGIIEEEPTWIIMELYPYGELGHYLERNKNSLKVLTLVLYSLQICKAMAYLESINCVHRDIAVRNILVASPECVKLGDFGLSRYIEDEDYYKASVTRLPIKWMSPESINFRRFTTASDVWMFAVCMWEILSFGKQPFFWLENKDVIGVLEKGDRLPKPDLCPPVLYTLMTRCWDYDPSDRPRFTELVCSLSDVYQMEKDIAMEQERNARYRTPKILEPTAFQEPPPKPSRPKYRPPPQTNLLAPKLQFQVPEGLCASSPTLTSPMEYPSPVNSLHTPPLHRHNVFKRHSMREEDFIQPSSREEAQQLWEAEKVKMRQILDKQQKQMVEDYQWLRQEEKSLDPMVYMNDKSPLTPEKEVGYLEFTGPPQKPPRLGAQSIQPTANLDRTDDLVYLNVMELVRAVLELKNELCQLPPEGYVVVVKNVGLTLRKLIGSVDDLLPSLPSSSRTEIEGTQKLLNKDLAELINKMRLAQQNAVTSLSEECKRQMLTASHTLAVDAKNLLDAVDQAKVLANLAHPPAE

[5] = inhibitors of firefly luciferase expression or activity, dose response, H4 neuroglioma cells, luminescence (AID 1990); format: functional, cell-based
[6] = tested on: Streptococcus sp. 'group A'; assay: growth inhibition of control SK(-) GAS strain, dose response, counter-screen for streptokinase expression inhibitor project, luminescence, kanamycin, BacTiterGlo, confirmation (AID 1900); format: functional, organism-based
[7] = Luminescence Cell-Based Dose Response HTS to Identify Inhibitors of 5'UTR Stem-Loop Driven Prion Protein mRNA Translation in H4 Neuroglioblastoma Cells. [Related pubchem assays: 1827 (Project Summary), 1813 (Primary HTS)]; format: functional
[8] = inhibitors of SNCA 5'UTR-driven reporter translation, confirmation, H4 neuroglioma cells, luminescence (AID 1988); format: functional, cell-based
Streptokinase A = target: T5, Streptokinase A (Streptococcus pyogenes serotype M1, UniProt P10520); assay: S. pyogenes streptokinase expression inhibitors, potency, dose response, plasminogen activation absorbance, OD405 (AID 1914); format: functional, Streptococcus pyogenes M1 GAS;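 note: secreted streptokinase activity via plasminogen activation per viability signal from cell pellet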
T5 sequence (P10520 whole entry): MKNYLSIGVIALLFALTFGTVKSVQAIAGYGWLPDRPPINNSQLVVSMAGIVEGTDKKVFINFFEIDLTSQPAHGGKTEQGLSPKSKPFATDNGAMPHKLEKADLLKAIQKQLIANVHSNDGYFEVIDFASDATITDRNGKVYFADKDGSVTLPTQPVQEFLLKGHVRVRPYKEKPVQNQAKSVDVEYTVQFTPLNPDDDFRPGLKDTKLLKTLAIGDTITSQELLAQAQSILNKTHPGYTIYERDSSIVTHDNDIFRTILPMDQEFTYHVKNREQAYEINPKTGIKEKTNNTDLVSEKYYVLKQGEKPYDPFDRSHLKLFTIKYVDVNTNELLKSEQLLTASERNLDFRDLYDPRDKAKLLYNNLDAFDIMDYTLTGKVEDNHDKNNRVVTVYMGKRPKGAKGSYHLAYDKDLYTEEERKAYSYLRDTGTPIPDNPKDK

[9] = Luminescence Cell-Based Dose Confirmation HTS to Identify Inhibitors of Polyadenylation.; format: functional
Streptococcus = assay: Group A Streptococcus viability loss, dose response, counter-screen for streptokinase expression inhibitor project, luminescence, BacTiterGlo (AID 1915); format: functional, organism-based;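 note: potency for reduction of bacterial viability or growth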
Vero = assay: cells; format: functional; details: Chlorocebus sabaeus
[10] = Luminescent dose response cell-based high throughput screening assay for inhibitors of the Janus kinase 2 mutant JAK2V617F. [Related pubchem assays: 1446 (Primary screen.), 1521 (Confirmation assay.), 1486 (Counter screen.)]; format: functional
[11] = Luminescence Cell-Based Dose Confirmation HTS to Identify Activators of 5'UTR Stem-Loop Driven Alpha-Synuclein mRNA Translation in H4 Neuroglioblastoma Cells. [Related pubchem assays: 1829 (Project Summary), 1814 (Primary HTS)]; format: functional
[12] = Luminescence Cell-Based Dose Response HTS to Identify Activators of Luciferase Translation or Activity in H4 […] Cells. [Related pubchem assays: 1829 (Project Summary), 1814 (Primary HTS)]; format: functional
H4 = assay: Luminescence Cell-Based Dose Response HTS to Identify Activators of 5'UTR Stem-Loop Driven Prion Protein mRNA Translation in H4 Neuroglioblastoma Cells. [Related pubchem assays: 1829 (Project Summary), 1814 (Primary HTS)]; format: functional; details: Homo sapiens
Mucolipin-3 = target: T6, Mucolipin-3 (Homo sapiens, UniProt Q8TDD5); assay: Dose response cell-based high-throughput screening assay for agonists of the transient receptor potential channel ML3 (TRPML3). [Related pubchem assays: 1526, 1424, 1448 ]; format: functional
T6 sequence (Q8TDD5 whole entry): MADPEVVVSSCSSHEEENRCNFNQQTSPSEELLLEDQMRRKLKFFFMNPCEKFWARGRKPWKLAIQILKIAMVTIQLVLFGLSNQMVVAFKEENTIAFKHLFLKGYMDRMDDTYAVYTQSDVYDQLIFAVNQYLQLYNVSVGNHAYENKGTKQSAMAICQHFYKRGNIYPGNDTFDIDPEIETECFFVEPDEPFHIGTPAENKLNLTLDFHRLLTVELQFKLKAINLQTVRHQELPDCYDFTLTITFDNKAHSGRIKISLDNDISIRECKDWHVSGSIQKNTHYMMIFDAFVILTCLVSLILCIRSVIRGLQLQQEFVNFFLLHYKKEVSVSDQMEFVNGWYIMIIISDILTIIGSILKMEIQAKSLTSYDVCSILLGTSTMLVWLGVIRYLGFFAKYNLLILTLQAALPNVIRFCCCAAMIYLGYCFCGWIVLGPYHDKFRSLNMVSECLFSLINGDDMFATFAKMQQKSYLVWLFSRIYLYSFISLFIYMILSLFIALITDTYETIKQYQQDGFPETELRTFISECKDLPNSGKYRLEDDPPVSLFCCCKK

Ion channel NompC = Ion channel NompC (Danio rerio, UniProt Q7T1G6); assay: Fluorescence counterscreen assay for TRPML3 agonists: dose response cell-based high-throughput screening assay to identify agonists of the transient receptor potential channel N1 (TRPN1). [Related pubchem assays: 1526, 1424, 1448 ]; format: functional
[13] = target: Peroxisome proliferator-activated receptor gamma/Nuclear receptor corepressor 2 (Homo sapiens, UniProt P37231+Q9Y618); assay: Counterscreen for NR2E3 inverse agonists: TR-FRET-based biochemical high throughput dose response assay to identify inverse agonists of the interaction between peroxisome proliferator-activated receptor gamma (PPARg) and nuclear receptor co-repressor 2 (NCOR2).; format: functional
Chain of Peroxisome proliferator-activated receptor gamma/Nuclear receptor corepressor 2 (P37231 whole entry): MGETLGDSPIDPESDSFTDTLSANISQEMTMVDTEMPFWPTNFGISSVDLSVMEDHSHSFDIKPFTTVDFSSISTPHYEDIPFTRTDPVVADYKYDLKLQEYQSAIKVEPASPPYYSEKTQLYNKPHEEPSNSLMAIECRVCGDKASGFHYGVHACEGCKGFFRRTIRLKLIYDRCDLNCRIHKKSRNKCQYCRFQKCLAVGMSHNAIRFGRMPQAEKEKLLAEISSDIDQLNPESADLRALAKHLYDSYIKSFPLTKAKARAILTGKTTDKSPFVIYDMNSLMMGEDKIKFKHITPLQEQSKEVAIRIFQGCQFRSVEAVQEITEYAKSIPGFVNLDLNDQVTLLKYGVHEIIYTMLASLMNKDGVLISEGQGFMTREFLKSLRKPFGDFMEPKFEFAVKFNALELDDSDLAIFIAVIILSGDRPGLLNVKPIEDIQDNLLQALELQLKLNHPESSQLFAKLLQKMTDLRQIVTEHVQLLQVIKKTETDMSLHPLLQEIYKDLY
Chain of Peroxisome proliferator-activated receptor gamma/Nuclear receptor corepressor 2 (Q9Y618 whole entry): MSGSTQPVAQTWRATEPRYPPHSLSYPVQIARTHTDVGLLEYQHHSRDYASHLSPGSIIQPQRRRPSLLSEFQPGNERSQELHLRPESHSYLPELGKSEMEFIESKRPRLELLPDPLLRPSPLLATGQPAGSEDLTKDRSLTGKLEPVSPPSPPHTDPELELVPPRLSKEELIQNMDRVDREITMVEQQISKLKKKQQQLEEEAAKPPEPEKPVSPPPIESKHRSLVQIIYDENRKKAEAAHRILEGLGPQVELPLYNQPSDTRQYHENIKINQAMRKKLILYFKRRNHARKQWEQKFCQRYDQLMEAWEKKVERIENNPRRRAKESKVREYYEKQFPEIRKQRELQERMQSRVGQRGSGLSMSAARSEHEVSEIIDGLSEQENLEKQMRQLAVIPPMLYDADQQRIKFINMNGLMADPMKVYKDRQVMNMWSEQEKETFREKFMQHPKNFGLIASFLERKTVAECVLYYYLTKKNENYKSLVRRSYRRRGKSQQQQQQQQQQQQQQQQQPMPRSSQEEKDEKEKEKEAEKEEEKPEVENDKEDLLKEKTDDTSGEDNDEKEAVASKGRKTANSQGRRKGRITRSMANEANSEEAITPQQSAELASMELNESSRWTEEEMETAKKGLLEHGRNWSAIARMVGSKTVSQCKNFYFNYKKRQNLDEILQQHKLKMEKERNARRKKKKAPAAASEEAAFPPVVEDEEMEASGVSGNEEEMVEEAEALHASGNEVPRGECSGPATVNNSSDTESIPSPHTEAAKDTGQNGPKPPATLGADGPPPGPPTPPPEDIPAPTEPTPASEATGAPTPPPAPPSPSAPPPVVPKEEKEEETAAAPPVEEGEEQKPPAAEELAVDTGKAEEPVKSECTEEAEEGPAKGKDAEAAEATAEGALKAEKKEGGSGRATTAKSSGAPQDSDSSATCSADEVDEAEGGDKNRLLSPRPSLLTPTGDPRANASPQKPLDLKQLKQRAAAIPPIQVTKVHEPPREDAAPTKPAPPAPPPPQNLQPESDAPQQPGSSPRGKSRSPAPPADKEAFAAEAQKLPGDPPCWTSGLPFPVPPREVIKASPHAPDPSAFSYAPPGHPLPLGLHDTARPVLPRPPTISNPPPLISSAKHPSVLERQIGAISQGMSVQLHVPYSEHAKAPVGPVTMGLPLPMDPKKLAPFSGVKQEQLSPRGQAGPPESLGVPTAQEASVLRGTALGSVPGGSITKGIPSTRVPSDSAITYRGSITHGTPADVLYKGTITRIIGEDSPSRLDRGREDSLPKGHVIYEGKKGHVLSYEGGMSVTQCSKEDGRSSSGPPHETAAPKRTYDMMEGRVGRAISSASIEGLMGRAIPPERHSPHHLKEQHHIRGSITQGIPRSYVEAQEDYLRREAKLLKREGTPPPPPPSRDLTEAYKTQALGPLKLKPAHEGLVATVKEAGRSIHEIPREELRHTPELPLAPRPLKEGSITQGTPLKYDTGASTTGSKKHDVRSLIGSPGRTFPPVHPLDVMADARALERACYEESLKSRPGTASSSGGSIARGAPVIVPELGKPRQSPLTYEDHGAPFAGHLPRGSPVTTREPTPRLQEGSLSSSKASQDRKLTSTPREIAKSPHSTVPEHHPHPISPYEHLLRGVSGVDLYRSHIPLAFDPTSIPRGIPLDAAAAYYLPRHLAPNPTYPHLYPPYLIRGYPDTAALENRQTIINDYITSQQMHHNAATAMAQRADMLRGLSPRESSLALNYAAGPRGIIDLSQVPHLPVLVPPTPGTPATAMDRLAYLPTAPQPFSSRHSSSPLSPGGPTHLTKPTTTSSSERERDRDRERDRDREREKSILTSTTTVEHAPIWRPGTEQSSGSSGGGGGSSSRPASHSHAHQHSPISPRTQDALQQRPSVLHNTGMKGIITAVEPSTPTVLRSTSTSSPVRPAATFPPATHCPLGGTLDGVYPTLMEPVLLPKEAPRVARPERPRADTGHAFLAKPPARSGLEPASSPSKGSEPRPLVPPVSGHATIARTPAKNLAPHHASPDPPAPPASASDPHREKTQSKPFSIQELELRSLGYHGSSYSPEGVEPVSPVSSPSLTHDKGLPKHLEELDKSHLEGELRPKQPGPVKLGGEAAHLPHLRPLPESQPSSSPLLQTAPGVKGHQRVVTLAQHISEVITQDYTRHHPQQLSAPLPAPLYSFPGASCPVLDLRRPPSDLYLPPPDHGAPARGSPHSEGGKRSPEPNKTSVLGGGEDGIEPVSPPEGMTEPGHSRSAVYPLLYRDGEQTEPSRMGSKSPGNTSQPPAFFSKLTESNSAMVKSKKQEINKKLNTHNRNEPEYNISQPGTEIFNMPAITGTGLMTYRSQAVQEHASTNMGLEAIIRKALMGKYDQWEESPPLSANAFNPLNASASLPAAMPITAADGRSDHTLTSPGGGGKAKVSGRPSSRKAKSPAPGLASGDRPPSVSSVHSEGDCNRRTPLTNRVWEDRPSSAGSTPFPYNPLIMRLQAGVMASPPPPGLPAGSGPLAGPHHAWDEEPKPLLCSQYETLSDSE

[14] = target: Photoreceptor-specific nuclear receptor (Homo sapiens, UniProt Q9Y5X4); assay: NR2E3 inverse agonists, dose response, biochemical, TR-FRET (AID 463256); format: functional
Chain of Photoreceptor-specific nuclear receptor (Q9Y5X4 whole entry): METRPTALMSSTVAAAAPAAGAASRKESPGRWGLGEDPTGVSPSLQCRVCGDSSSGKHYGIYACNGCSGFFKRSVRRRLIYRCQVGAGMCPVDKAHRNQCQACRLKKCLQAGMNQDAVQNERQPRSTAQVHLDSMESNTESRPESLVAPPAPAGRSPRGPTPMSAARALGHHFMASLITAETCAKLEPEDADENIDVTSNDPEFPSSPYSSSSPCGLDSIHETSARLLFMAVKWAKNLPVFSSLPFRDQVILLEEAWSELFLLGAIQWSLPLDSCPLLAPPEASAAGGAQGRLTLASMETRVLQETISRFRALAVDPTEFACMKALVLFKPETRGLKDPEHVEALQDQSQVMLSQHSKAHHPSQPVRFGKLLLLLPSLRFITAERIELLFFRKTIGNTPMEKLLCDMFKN

[15] = target: Glyceraldehyde-3-phosphate dehydrogenase (Homo sapiens, UniProt P04406)
Chain of Glyceraldehyde-3-phosphate dehydrogenase (P04406 whole entry): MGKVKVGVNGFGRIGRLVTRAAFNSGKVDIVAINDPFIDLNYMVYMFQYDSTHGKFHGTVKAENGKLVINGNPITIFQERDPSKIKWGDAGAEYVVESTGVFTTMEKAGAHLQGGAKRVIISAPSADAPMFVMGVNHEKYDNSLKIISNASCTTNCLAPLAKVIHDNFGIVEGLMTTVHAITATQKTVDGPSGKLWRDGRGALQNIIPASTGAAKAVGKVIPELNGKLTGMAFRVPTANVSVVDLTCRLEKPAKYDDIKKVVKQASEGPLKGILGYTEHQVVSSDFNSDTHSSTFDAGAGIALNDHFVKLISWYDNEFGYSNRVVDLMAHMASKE

Bcl-2-related protein A1 [16] = target: T7, Bcl-2-related protein A1 (Mus musculus, UniProt Q07440); assay: Bfl-1 inhibitors blocking BH3 peptide binding, confirmation, biochemical, TR-FRET, mouse Bfl-1 (AID 621);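 note: TR-FRET binding of GST-Bfl-1 to FITC-labelled Bid peptide via terbium antibody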
T7 sequence (Q07440 whole entry): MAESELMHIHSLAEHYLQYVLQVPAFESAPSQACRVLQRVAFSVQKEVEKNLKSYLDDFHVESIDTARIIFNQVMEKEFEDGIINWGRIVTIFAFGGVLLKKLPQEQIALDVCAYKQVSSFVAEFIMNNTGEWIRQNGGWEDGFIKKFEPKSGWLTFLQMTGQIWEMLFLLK

Bcl-2-related protein A1 [17] = target: T7, Bcl-2-related protein A1; assay: Bfl-1 binding inhibitors, SAR follow-up, biochemical, fluorescence polarization (AID 1070)

## COc1ccc2c(c1)Nc1ccccc1S2
NADPH oxidase 1
  IC50: 0.913 µM (active)

## O=C(/C=C/c1ccco1)Nc1cc(Cl)ccc1C(=O)O
Leucine aminopeptidase
  IC50: 74.4 µM (active)
[1]
  IC50: 36.7 µM (active)

## Oc1ccc2ccccc2c1/C=N/c1ccc(N2CCOCC2)cc1
[2]
  EC50: > 300 µM (not active)
[3]
  EC50: > 300 µM (not active)
Large T antigen
  IC50: 36 µM (active)
[4]
  IC50: 10.6 µM (not active)

## Cc1c(C(=O)Nc2nonc2-c2ccc(F)cc2)oc2ccc(F)cc12
[5]
  EC50: > 120 µM (not active)
[6]
  EC50: 3.52 µM (active)
[7]
  EC50: 12.9 µM (active)
[8]
  EC50: > 120 µM (not active)
Streptokinase A
  EC50: 27.7 µM (active)
[9]
  EC50: > 120 µM (not active)
Streptococcus
  EC50: > 150 µM (not active)
Vero
  CC50: 6.89 µM (active)

## COc1ccc2no[n+]([O-])c2c1
[9]
  EC50: > 120 µM (not active)

## Cc1nc(O)c(C(=O)/C=C/c2ccccc2F)c2c1CCCC2
[10]
  IC50: 1.52 µM (active)
[11]
  EC50: 9.92 µM (active)
[12]
  EC50: > 120 µM (not active)
H4
  EC50: > 120 µM (not active)

## Cc1ccc(S(=O)(=O)N2CCC(=O)N(C(COCc3ccc(C(F)(F)F)cc3)C(C)C)CC2)cc1 (configuration not stated)
Mucolipin-3
  EC50: 3.92 µM (active)
Ion channel NompC
  EC50: > 29.9 µM (not active)

## COc1ccc2[nH]c(C(=O)Nc3ccc(F)cc3Br)cc2c1
[13]
  IC50: > 39.9 µM (not active)
[14]
  IC50: > 39.9 µM (not active)

## COc1ccc2oc3cc(C)[n+]([O-])c(-c4ccc(Cl)cc4)c3c2c1
[1]
  IC50: > 100 µM (active)

## Cc1cc2c(s1)c1cnn(CC(=O)NCCc3ccccc3)c(=O)c1n2C
[13]
  IC50: 2.65 µM (active)
[14]
  IC50: 2.52 µM (active)

## c1ccc(-c2nc(-c3ccccc3)c(-c3ccccc3)[nH]2)cc1
NADPH oxidase 1
  IC50: > 17 µM (not active)

## O=C(N/N=C1/C(=O)c2cccc3cccc1c23)c1ccc(Cl)cc1
[4]
  IC50: 4.31 µM (active)

## O=C1C(Cl)=C(Cl)C(=O)N1c1ccnc(Cl)c1
[15]
  IC50: > 100 µM (not active)
Bcl-2-related protein A1 [16]
  IC50: 39.9 µM (active)
Bcl-2-related protein A1 [17]
  IC50: > 100 µM (not active)
